Values joined by “and” are separate entries in the source; they are usually repeats but may differ in a detail not shown here. Equal values may be shown once.
System: unicameral bone cyst (UBC)
Assay: Retrospective evaluation of pediatric patients with UBC treated by doxycycline chemical curettage (sclerotherapy) and injection of synthetic bone graft
Assay type: in vivo
Protocol: Summary. Retrospective evaluation of twelve pediatric patients, ages 5-14 years, undergoing treatment for a UBC, at a single institution. All UBCs were treated in a single, minimally invasive, image guided procedure using percutaneous needle access into the UBC followed by chemical curettage (a form of sclerotherapy) and injection of regenerative synthetic graft. Patients were followed clinically, and with serial radiographs, to evaluate for healing and complications. Mean time to return to full activity was 2.2 months post procedure, with a mean clinical follow-up time of 9.2 months.
Methods. Fifteen patients were initially enrolled in this IRB approved study from August 2018 through May 2020. The diagnosis of UBC was made via radiographs and/or magnetic resonance imaging (MRI).
Combination sclerotherapy and graft injection with CaSO4—CaPO4 was performed in a single setting as an outpatient procedure with an average procedure time of 45 minutes (range 30-60 minutes). Mean volume of doxycycline instilled during cyst sclerotherapy was 52 mL (20 mg/ml and a range 20-100 mL). Mean volume of CaSO4—CaPO4 synthetic graft material administered was 28 mL (range 4-90 mL).
Patients were followed clinically for a minimum of three months post procedure, with radiographs performed at follow-up visits. One patient was excluded as they had imaging consistent with a fractured UBC that had subsequently rehealed into multiple cysts, and 2 other patients were excluded secondary to follow up of less than 3 months.
Assessment of treatment response was evaluated using the Modified Neer Classification of Radiographic Healing, as shown above in Table 1. All radiographs were evaluated by four attending pediatric radiologists.
Procedure Technique. All procedures were performed under general anesthesia. For each procedure, the cyst was localized under fluoroscopy, and the upper and lower margins of the cyst were marked on the skin. Ultrasound mapping of the area of concern was performed to identify critical structures such as arteries or nerves. However, the cyst itself could often be visualized sonographically due to associated cortical thinning.
A 5 mm incision was made at each cyst margin as marked on the skin, and an 11-gauge or 14-gauge “treatment” needle was advanced into the cyst percutaneously. Choice of needle gauge was determined by cyst size and the expected amount of synthetic graft to be administered, with 11-gauge needles used in larger cysts. A second 5 mm incision was made along the remaining marked margin of the lesion, and a 14-gauge or 16-gauge “venting” needle was placed.
Next, Omnipaque-180 (GE Healthcare), a water-soluble iodinated contrast, was diluted with sterile saline in a 1:1 ratio and was injected via the treatment needle during fluoroscopic visualization, taking care to ensure fluid egress via the venting needle. Contrast injection was performed to confirm a cystic nature of the UBC, to ensure adequate diffusion of the injected contrast throughout the cystic cavity, as well as to assess the presence of unexpected significant vascular outflow. Occasionally, an incomplete septation within the cyst was encountered, likely secondary healing change related to a prior pathologic fracture or prior treatment.
Doxycycline (20 mg/mL), in a volume to match the cyst volume, was injected through the treatment needle and aspirated through the venting needle in a push-pull fashion, irrigating the cyst for one minute. The doxycycline was allowed to dwell for another nine minutes. A second round of sclerosant irrigation was then performed using similar technique and fresh doxycycline solution; thus, the total duration of doxycycline sclerotherapy was 20 minutes.
Utilizing the cyst volume determined during initial contrast injection, a similar volume of synthetic bone graft material was prepared and injected through the treatment needle during live fluoroscopy. […]

Compound: C[C@H]1c2cccc(O)c2C(=O)C2=C(O)[C@]3(O)C(=O)C(C(N)=O)=C(O)[C@@H](N(C)C)[C@@H]3[C@@H](O)[C@@H]21 [doxycycline]
- Patients with healing of the UBC (Modified Neer class 1) (10 of 12 patients, most recent follow-up radiographs): 83%
- Patients showing healed cysts (Modified Neer classes 1 or 2) (11 of 12 patients, most recent follow-up): 91.7%
- Adverse events related to the procedures (12 patients): no adverse events related to the procedures
- Perioperative complications (12 patients): No perioperative complications were observed
- Return to Activities (mo) (one line per patient (patients 1-12), doxycycline 20 mg/mL sclerotherapy followed by CaSO4-CaPO4 synthetic graft (PRO-DENSE)): 1.0 mo and 0.8 mo and 1.9 mo and 2.1 mo and 1.3 mo and 1.6 mo (2×) and 1.2 mo and 3.1 mo and 4.8 mo and 2.8 mo and 3.7 mo
- Patients with healing with a small defect (Modified Neer class 2) (one of 12 patients, most recent follow-up radiographs): 8%
